Experimental data: patent US20240317689A1, “POTASSIUM CHANNEL MODULATOR, COMPOSITION AND APPLICATION” (NEUSHEN THERAPEUTICS (SHANGHAI) CO., LTD, priority 2021, published 2024)

Target: T1, KCNQ2/3 potassium ion channel (Homo sapiens, UniProt O43525+O43526)
T1 construct: expressed in transfected cells; host or cells: CHO cells (hKCNQ-CHO)
Experiment: KCNQ2/3 potassium ion channel activation assay (whole-cell patch clamp, hKCNQ-CHO cells)
Type: cell-based
Conditions: read-out: Enhancment % (current enhancement multiple); for activation at 3 µM: test concentration 3 μM; for activation at 0.05 µM: test concentration 0.05 μM
Description: Example 64: KCNQ2/3 Potassium Ion Channel Activation Assay
hKCNQ-CHO cells were cultured at 37° C. in a humidified environment of 5% CO2.
• 2.1. Extracellular fluid (mM): NaCl 145, KCl 4, CaCl2 2, MgCl2 1, Glucose 10, HEPES 10. The pH value of the extracellular fluid was adjusted to 7.4 with NaOH, and the osmotic pressure was adjusted to about 295 mOsm. • 2.2. Intracellular fluid (mM (mmol/L)): KOH 31.25, KCl 120, EGTA 10, MgCl2 1.75, CaCl2 5.374, HEPES 10, Na-ATP 4. The pH value of the intracellular fluid was adjusted to 7.4 with HCl, and the osmotic pressure was adjusted to about 285 mOsm. • 2.3. The extracellular fluid should be prepared once a week, and the intracellular fluid should be stored at −20° C. after preparation.
The model positive reference compound Retigabine (RTG) was dissolved with 100% DMSO and configured as a 10 mM working solution. The test compounds were dissolved with 100% DMSO and configured as a 10 mM working solution. The final concentration of DMSO in the test solution should be less than 0.3%.
Whole-cell patch clamp was performed at room temperature. The electrical signals recorded with the EPC 10 USB amplifier (HEKA Elektronik, Germany) were filtered by a 3 kHz low-pass filter, and finally recorded in PatchMaster 2×90.5 software (HEKA Elektronik, Germany). At this step, the quality control standard was that the cell high-resistance sealing was greater than 500 MOhms, and the detection current was greater than 0.4 nA.
The recording electrodes were pulled out and polished with a vertical puller (NARISHIGE PC-10, Japan) using a borosilicate glass capillary (GC150tF-10, Harvard Apparatus Co., UK). At this step, the quality control standard was that the electrode resistance was between 2 MΩ and 5 MΩ.
During the recording process of the whole-cell patch clamp, a continuous perfusion system (BT100-2J, LongerPump, China) was used to continuously perfuse the extracellular fluid. The perfusion system was installed on the stage of an upright microscope (FN-S2N, Nikon, Japan), and the perfusion head was manually positioned under the microscope.
The voltage command for detecting the amplitude of hKCNQ current was as follows: the cell stepped from the clamping potential of −80 mV to −30 mV, and held for 1500 ms; and then the clamping voltage was lowered to −120 my and held for 500 ms; finally, the voltage returned to the clamping potential of −80 mV. The detection voltage command was repeated every 15,000 milliseconds, and the command was continuously executed during the compound test. The quality control standard for compound action stability was the current amplitude under 5 consecutive voltage commands, and the coefficient of variation of the current amplitude was <5%.
Data analysis was performed using PatchMaster 2×90.5 software (HEKA Elektronik, Germany) and Excel 2013 (Microsoft, USA) software. For each cell's patch clamp recording, the amplitude of the hKCNQ channel current (Itest) corresponding to the test compound concentration should be obtained. The enhanced channel current was obtained by subtracting the cell's original channel current (Icontrol) from Itest and dividing by Icontrol to obtain the current enhancement multiple. That is, the current enhancement multiple (Enhancment %)=(Itest −Icontrol)/Icontrol[…].

| Structure (SMILES) | activation at 3 µM | activation at 0.05 µM |
| --- | --- | --- |
| Cc1cc(N2CCCc3cc(OCCOCC(F)(F)F)ccc3C2)cc(C)c1NC(=O)CC(C)(C)C [Compound 056, N-(2,6-dimethyl-4-(7-(2-(2,2,2-trifluoroethoxy)ethoxy)-1,3,4,5-tetrahydro-2H-benzo[c]azepin-2-yl)phenyl)-3,3-dimethylbutanamide] | > 100% |  |
| Cc1cc(N2CCCc3cc(OC(C)C(F)(F)F)c(F)cc3C2)cc(C)c1NC(=O)CC(C)(C)C (centres unmarked) [Compound 034, N-(4-(8-fluoro-7-((1,1,1-trifluoropropan-2-yl)oxy)-1,3,4,5-tetrahydro-2H-benzo[c]azepin-2-yl)-2,6-dimethylphenyl)-3,3-dimethylbutanamide] | > 100% |  |
| Cc1cc(N2CCCc3cc(OCC4(C(F)(F)F)CC4)ccc3C2)cc(C)c1NC(=O)CC(C)(C)C [Compound 054, N-(2,6-dimethyl-4-(7-((1-(trifluoromethyl)cyclopropyl)methoxy)-1,3,4,5-tetrahydro-2H-benzo[c]azepin-2-yl)phenyl)-3,3-dimethylbutanamide] | > 100% |  |
| Cc1cc(N2CCCc3cc(OC4CC4)ccc3C2)cc(C)c1NC(=O)CC(C)(C)C [Compound 009, N-(4-(7-cyclopropoxy-1,3,4,5-tetrahydro-2H-benzo[c]azepin-2-yl)-2,6-dimethylphenyl)-3,3-dimethylbutanamide] | > 100% |  |
| Cc1cc(N2CCCc3cc(O[C@@H](C)C(F)(F)F)c(F)cc3C2)cc(C)c1NC(=O)CC(C)(C)C [Compound 036, (S)—N-(4-(8-fluoro-7-((1,1,1-trifluoropropan-2-yl)oxy)-1,3,4,5-tetrahydro-2H-benzo[c]azepin-2-yl)-2,6-dimethylphenyl)-3,3-dimethylbutanamide] | > 100% |  |
| CCOc1ccc2c(c1)CCCN(c1cc(C)c(NC(=O)CC(C)(C)C)c(C)c1)C2 [Compound 002, N-(4-(7-ethoxy-1,3,4,5-tetrahydro-2H-benzo[c]azepin-2-yl)-2,6-dimethylphenyl)-3,3-dimethylbutanamide] | 50 to 100% | < 50% |
| Cc1cc(N2CCCc3cc(OC4CCCC4)c(F)cc3C2)cc(C)c1NC(=O)CC(C)(C)C [Compound 044, N-(4-(7-(cyclopentyloxy)-8-fluoro-1,3,4,5-tetrahydro-2H-benzo[c]azepin-2-yl)-2,6-dimethylphenyl)-3,3-dimethylbutanamide] | > 100% |  |
| Cc1cc(N2CCCc3cc(OC45CC(C(F)F)(C4)C5)ccc3C2)cc(C)c1NC(=O)CC(C)(C)C [Compound 051, N-(4-(7-((3-(difluoromethyl)bicyclo[1.1.1]pentan-1-yl)oxy)-1,3,4,5-tetrahydro-2H-benzo[c]azepin-2-yl)-2,6-dimethylphenyl)-3,3-dimethylbutanamide] | > 100% |  |
| Cc1cc(N2CCCc3cc(OC(C(F)(F)F)C(F)(F)F)ccc3C2)cc(C)c1NC(=O)CC(C)(C)C [Compound 055, N-(4-(7-((1,1,1,3,3,3-hexafluoropropan-2-yl)oxy)-1,3,4,5-tetrahydro-2H-benzo[c]azepin-2-yl)-2,6-dimethylphenyl)-3,3-dimethylbutanamide] | > 100% |  |
| Cc1cc(N2CCCc3cc(S(C)(=O)=O)ccc3C2)cc(C)c1NC(=O)CC(C)(C)C [Compound 015, N-(2,6-dimethyl-4-(7-(methylsulfonyl)-1,3,4,5-tetrahydro-2H-benzo[c]azepin-2-yl)phenyl)-3,3-dimethylbutanamide] | > 100% |  |
| COc1ccc2c(c1)CCCN(c1cc(C)c(NC(=O)CC(C)(C)C)c(C)c1)C2 [Compound 001, N-(4-(7-methoxy-1,3,4,5-tetrahydro-2H-benzo[c]azepin-2-yl)-2,6-dimethylphenyl)-3,3-dimethylbutanamide] | 50 to 100% | 50 to 100% |
| CC[C@@H](C)Oc1cc2c(cc1F)CN(c1cc(C)c(NC(=O)CC(C)(C)C)c(C)c1)CCC2 [Compound 041, (R)—N-(4-(7-(sec-butoxy)-8-fluoro-1,3,4,5-tetrahydro-2H-benzo[c]azepin-2-yl)-2,6-dimethylphenyl)-3,3-dimethylbutanamide] | > 100% |  |
